Test results from patent US8906825B2, “Herbicidal compositions comprising 4-amino-3-chloro-5-fluoro-6-(4-chloro-2-fluoro-3-methoxyphenyl) pyridine-2-carboxylic acid or a derivative thereof and triazolopyrimidine sulfonamides” (Dow AgroSciences LLC, priority 2012, dated 2014).

Key:
Assay type in all cases: in vivo
[1] = system: ECHCG (Echinochloa crusgalli (L.) Beauv., barnyardgrass); experiment: In-water applied herbicidal mixtures, transplanted paddy rice, greenhouse (Example II)
Method: (§1) Weed seeds or nutlets of the desired test plant species were planted in puddled soil (mud) prepared by mixing a shredded, non-sterilized mineral soil (50.5 percent silt, 25.5 percent clay, and 24 percent sand, with a pH of about 7.6 and an organic matter content of about 2.9 percent) and water at a 1:1 volumetric ratio. The prepared mud was dispensed in 365 mL aliquots into 16-ounce (oz.) non-perforated plastic pots with a surface area of 86.59 square centimeters (cm^2) leaving a headspace of 3 centimeters in each pot. Mud was allowed to dry overnight prior to planting or transplanting. Rice seeds were planted in Sun Gro MetroMix® 306 planting mixture, which typically has a pH of 6.0 to 6.8 and an organic matter content of about 30 percent, in plastic plug trays. Seedlings at the second or third leaf stage of growth were transplanted into 840 mL of mud contained in 32-oz. non-perforated plastic pots with a surface area of 86.59 cm^2 4 days prior to herbicide application. The paddy was created by filling the headspace of the pots with 2.5 to 3 cm of water. When required to ensure good germination and healthy plants, a fungicide treatment and/or other chemical or physical treatment was applied. The plants were grown for 4-22 days in a greenhouse with an approximate 14 h photoperiod which was maintained at about 29′C during the day and about 26° C. during the night. Nutrients were added as Osmocote® (19:6:12, N:P:K+minor nutrients) at 2 g per 16-oz. pot and 4 g per 32-oz. pot. Water was added on a regular basis to maintain the paddy flood, and supplemental lighting was provided with overhead metal halide 1000-Watt lamps as necessary. The plants were employed for testing when they reached the first through fourth true leaf stage.
(§2) Treatments consisted of the acid or esters of 4-amino-3-chloro-5-fluoro-6-(4-chloro-2-fluoro-3-methoxy-phenyl)pyridine-2-carboxylic acid (compound A) each formulated as an SC and various herbicidal components alone and in combination. Forms of compound A were applied on an acid equivalent basis.
(§3) Other herbicidal components were applied on an active ingredient basis and included acetolactate synthase (ALS)-inhibiting herbicides (sulfonamide chemical class) penoxsulam formulated as Grasp® SC (GF-443), diclosulam formulated as Strongarm®, and cloransulam-methyl formulated as FirstRate®.
(§4) Treatment requirements for each compound or herbicidal component were calculated based upon the rates being tested, the concentration of active ingredient or acid equivalent in the formulation, an application volume of 2 mL per component per pot, and an application area of 86.59 cm^2 per pot.
(§5) For formulated compounds, a measured amount was placed in an individual 100 or 200 mL glass vial and was dissolved in a volume of 1.25% (v/v) Agri-Dex® crop oil concentrate to obtain each application solution.
(§6) Applications were made by injecting with a pipetter appropriate amounts of the application solutions, individually and sequentially, into the aqueous layer of the paddy. Control plants were treated in the same manner with the solvent blank. Applications were made so that all treated plant material received the same concentrations of acetone and crop oil concentrate.
(§7) The treated plants and control plants were placed in a greenhouse as described above and water was added as needed to maintain a paddy flood. After approximately 3 weeks the condition of the test plants as compared with that of the untreated plants was determined visually and scored on a scale of 0 to 100 percent where 0 corresponds to no injury or growth inhibition and 100 corresponds to complete kill.
(§8) Colby's equation was used to determine the herbicidal effects expected from the mixtures (Colby, S. R. 1967. Calculation of the synergistic and antagonistic response of herbicide combinations. Weeds 15:20-22.).
(§9) The following equation was used to calculate the expected activity of mixtures containing two active ingredients, A and B: Expected=A+B−(A×B/100)

[2] = system: CYPDI (Cyperus difformis L., smallflower umbrella sedge); experiment: as above
Method: as §1, §2, §3, §4, §5, §6, §7, §8, §9

[3] = system: FIMMI (Fimbristylis miliacea (L.) Vahl, globe fringerush); experiment: as above
Method: as §1, §2, §3, §4, §5, §6, §7, §8, §9

[4] = system: DIGSA (Digitaria sanguinalis (L.) Scop., large crabgrass); experiment: Postemergence foliar-applied herbicidal mixtures, direct seeded rice, greenhouse (Example I)
Description: (§10) Seeds or nutlets of the desired test plant species were planted in a soil matrix prepared by mixing a loam or sandy loam soil (e.g., 28.6 percent silt, 18.8 percent clay, and 52.6 percent sand, with a pH of about 5.8 and an organic matter content of about 1.8 percent) and calcareous grit in an 80 to 20 ratio. The soil matrix was contained in plastic pots with a volume of 1 quart and a surface area of 83.6 square centimeters (cm^2). When required to ensure good germination and healthy plants, a fungicide treatment and/or other chemical or physical treatment was applied. The plants were grown for 8-22 days in a greenhouse with an approximate 14 h photoperiod which was maintained at about 29° C. during the day and about 26° C. during the night. Nutrients (Peters Excel® 15-5-15 5-Ca 2-Mg and iron chelate) were applied in the irrigation solution as needed and water was added on a regular basis. Supplemental lighting was provided with overhead metal halide 1000-Watt lamps as necessary. The plants were employed for testing when they reached the first through fourth true leaf stage.
(§11) Treatments consisted of the acid or esters of 4-amino-3-chloro-5-fluoro-6-(4-chloro-2-fluoro-3-methoxy-phenyl)pyridine-2-carboxylic acid (Compound A), each formulated as an SC (suspension concentrate), and various herbicidal components alone and in combination. Forms of compound A were applied on an acid equivalent basis.
(§12) Other herbicidal components were applied on an active ingredient basis and included acetolactate synthase (ALS)-inhibiting herbicides (sulfonamide chemical class) penoxsulam formulated as Grasp® SC, diclosulam formulated as Strongarm®, and cloransulam-methyl formulated as FirstRate®, flumetsulam formulated as Flumetsulam WG, and metosulam formulated as Eclipse®.
(§13) Treatment requirements were calculated based upon the rates being tested, the concentration of active ingredient or acid equivalent in the formulation, and a 12 mL application volume at a rate of 187 L/ha.
(§14) For treatments comprised of formulated compounds, measured amounts of compounds were placed individually in 25 mL glass vials and diluted in a volume of 1.25% (v/v) Agri-Dex® crop oil concentrated to obtain 12× stock solutions. […] Application solutions were prepared by adding an appropriate amount of each stock solution (e.g., 1 mL) and diluted to the appropriate final concentrations with the addition of 10 mL of an aqueous mixture of 1.25% (v/v) crop oil concentrate so that the final spray solutions contained 1.25+/−0.05% (v/v) crop oil concentrate.
(§15) All stock solutions and applications solutions were visually inspected for compound compatibility prior to application. Spray solutions were applied to the plant material with an overhead Mandel track sprayer equipped with an 8002E nozzle calibrated to deliver 187 L/ha over an application area of 0.503 m^2 at a spray height of 18 to 20 inches (46 to 50 cm) above average plant canopy height. Control plants were sprayed in the same manner with the solvent blank.
(§16) The treated plants and control plants were placed in a greenhouse as described above and watered by sub-irrigation to prevent wash-off of the test compounds. After approximately 3 weeks, the condition of the test plants as compared with that of the untreated plants was determined visually and scored on a scale of 0 to 100 percent where 0 corresponds to no injury or growth inhibition and 100 corresponds to complete kill.
as §8, §9

[5] = system: LEFCH (Leptochloa chinensis (L.) Nees, Chinese sprangletop); experiment: as above
Description: as §10, §11, §12, §13, §14, §15, §16, §8, §9

[6] = system: CYPIR (Cyperus iria L., rice flatsedge); experiment: as above
Description: as §10, §11, §12, §13, §14, §15, §16, §8, §9

[7] = system: CYPRO (Cyperus rotundus L., purple nutsedge); experiment: In-water applied herbicidal mixtures, transplanted paddy rice, greenhouse (Example II); conditions: Compound A Acid 8.75 gae/ha
Method: as §1, §2, §3, §4, §5, §6, §7, §8, §9

[8] = system: LEFCH (Leptochloa chinensis (L.) Nees, Chinese sprangletop); experiment: as above
Method: as §1, §2, §3, §4, §5, §6, §7, §8, §9

[9] = system: IPOHE (Ipomoea hederacea Jacq., ivyleaf morningglory); experiment: Postemergence foliar-applied herbicidal mixtures, direct seeded rice, greenhouse (Example I)
Description: as §10, §11, §12, §13, §14, §15, §16, §8, §9

## CCOc1nc(F)cc2nc(S(=O)(=O)Nc3c(Cl)cccc3C(=O)OC)nn12 [Cloransulam-methyl, methyl 3-chloro-2-[[(5-ethoxy-7-fluoro[1,2,4]triazolo[1,5-c]pyrimidin-2-yl)sulfonyl]amino]benzoate, reference compound]
[1]; Cloransulam-methyl 17.5 gai/ha
  Visual Weed Control (%) - 22 DAA ECHCG Obs: 50%
[2]; Cloransulam-methyl 17.5 gai/ha
  Visual Weed Control (%) - 21 DAA CYPDI Obs: 40%
[2]; Cloransulam-methyl 35 gai/ha
  Visual Weed Control (%) - 21 DAA CYPDI Obs: 80%
[3]; Cloransulam-methyl 17.5 gai/ha, Table 14
  Visual Weed Control (%) - 21 DAA FIMMI Obs: 40%
[3]; Cloransulam-methyl 17.5 gai/ha, Table 15
  Visual Weed Control (%) - 21 DAA FIMMI Obs: 40%
[3]; Cloransulam-methyl 35 gai/ha, Table 14
  Visual Weed Control (%) - 21 DAA FIMMI Obs: 60%
[3]; Cloransulam-methyl 35 gai/ha, Table 15
  Visual Weed Control (%) - 21 DAA FIMMI Obs: 60%
[4]; Cloransulam-methyl 2.19 gai/ha
  Visual Weed Control (%) - 20 DAA DIGSA Obs: 10%
[5]; Cloransulam-methyl 2.19 gai/ha, Table 7
  Visual Weed Control (%) - 20 DAA LEFCH Obs: 0%
[5]; Cloransulam-methyl 4.38 gai/ha, Table 6
  Visual Weed Control (%) - 20 DAA LEFCH Obs: 0%
[5]; Cloransulam-methyl 4.38 gai/ha, Table 7
  Visual Weed Control (%) - 20 DAA LEFCH Obs: 0%
[5]; Cloransulam-methyl 8.75 gai/ha, Table 6
  Visual Weed Control (%) - 20 DAA LEFCH Obs: 0%
[6]; Cloransulam-methyl 4.38 gai/ha
  Visual Weed Control (%) - 20 DAA CYPIR Obs: 70%
[6]; Cloransulam-methyl 8.75 gai/ha
  Visual Weed Control (%) - 20 DAA CYPIR Obs: 85%

## COc1c(Cl)ccc(-c2nc(C(=O)O)c(Cl)c(N)c2F)c1F [Compound A Acid, 4-amino-3-chloro-5-fluoro-6-(4-chloro-2-fluoro-3-methoxy-phenyl)pyridine-2-carboxylic acid]
[1]; Compound A Acid 16 gae/ha
  Visual Weed Control (%) - 22 DAA ECHCG Obs: 20%
[1]; Compound A Acid 32 gae/ha
  Visual Weed Control (%) - 22 DAA ECHCG Obs: 25%
[2]; Compound A Acid 16 gae/ha
  Visual Weed Control (%) - 21 DAA CYPDI Obs: 30%
[7]
  Visual Weed Control (%) - 21 DAA CYPRO Obs: 0%
[3]; Compound A Acid 16 gae/ha
  Visual Weed Control (%) - 21 DAA FIMMI Obs: 20%
[3]; Compound A Acid 32 gae/ha
  Visual Weed Control (%) - 21 DAA FIMMI Obs: 20%
[8]; Compound A Acid 8.75 gae/ha
  Visual Weed Control (%) - 25 DAA LEFCH Obs: 50%
[8]; Compound A Acid 17.5 gae/ha
  Visual Weed Control (%) - 25 DAA LEFCH Obs: 50%
[8]; Compound A Acid 35 gae/ha
  Visual Weed Control (%) - 25 DAA LEFCH Obs: 85%
[4]; Compound A Acid 5.3 gae/ha
  Visual Weed Control (%) - 20 DAA DIGSA Obs: 10%
[4]; Compound A Acid 10.6 gae/ha
  Visual Weed Control (%) - 20 DAA DIGSA Obs: 20%
[4]; Compound A Acid 21.2 gae/ha
  Visual Weed Control (%) - 20 DAA DIGSA Obs: 20%
[9]; Compound A Acid 4.38 gae/ha
  Visual Weed Control (%) - 27 DAA IPOHE Obs: 10%
[9]; Compound A Acid 8.75 gae/ha
  Visual Weed Control (%) - 27 DAA IPOHE Obs: 10%
[9]; Compound A Acid 17.5 gae/ha
  Visual Weed Control (%) - 27 DAA IPOHE Obs: 10%
[5]; Compound A Acid 4.38 gae/ha
  Visual Weed Control (%) - 20 DAA LEFCH Obs: 15%
[5]; Compound A Acid 5.3 gae/ha
  Visual Weed Control (%) - 20 DAA LEFCH Obs: 0%
[5]; Compound A Acid 8.75 gae/ha
  Visual Weed Control (%) - 20 DAA LEFCH Obs: 30%
[5]; Compound A Acid 10.6 gae/ha
  Visual Weed Control (%) - 20 DAA LEFCH Obs: 10%
[5]; Compound A Acid 17.5 gae/ha
  Visual Weed Control (%) - 20 DAA LEFCH Obs: 50%
[5]; Compound A Acid 19.4 gae/ha
  Visual Weed Control (%) - 19 DAA LEFCH Obs: 5%
[5]; Compound A Acid 21.2 gae/ha
  Visual Weed Control (%) - 20 DAA LEFCH Obs: 15%
